Results taken from patent publication US11178895B2, “Composition for enhancing immunity of insects and method thereof” (NatureWise Biotech & Medicals Corporation, priority 2017, dated 2021).

Test system: field bees
Assay: Honey bee acute contact toxicity test (topical imidacloprid): tolerance of bees to imidacloprid
Assay type: in vivo
Settings: control group fed 50% sucrose water
Excerpt: Many reports confirm that neonicotinoids cause damage to the immune system of bees and many species (Mason et al., 2013). It is clear that damage to the immune system may be one of the important causes of bee killing by imidacloprid (a pesticide). According to the experimental results of the composition of the invention on the survival rate of bees and the regulation of immune genes, in this experiment, field bees that are easily exposed to pesticides are used as the test subjects, and sugar water containing a concentration of 0.5 mg/mL of Macaranga tanarius extract is fed to observe whether the tolerance of bees to imidacloprid can be enhanced.
The experiment employed Topical application method with reference to US EPAOCSPP 850.3020: Honey Bee Acute Contact Toxicity Test. […] After the bees were frozen and fainted, 1 μg/bee of the imidacloprid solution was administered quantitatively to the prothorax tergum of the bee by a microapplicator. The solvent control group was administered with 1 […]. Each group had 10 bees. After the administration of the drug, the bees were transferred to a constant-temperature growth box for breeding. The sugar water containing 0.5 mg/mL of Macaranga tanarius extract was provided to feed the bees in the experimental group, and the control group was fed with 50% sucrose water. […]

O=[N+]([O-])NC1=NCCN1Cc1ccc(Cl)nc1 [imidacloprid] was tested, and the “24-hour average mortality rate” value (6.7 ng/μL imidacloprid) was 19.30% and the “24-hour average mortality rate” value (23.8 ng/μL imidacloprid) was 36.84%.
